This is an account of results in US10035800B2 (AbbVie Inc., priority 2013, dated 2018).

In test [1] the target is T1, BRD4 (BDI_K57-E168) (Homo sapiens, UniProt O60885).
T1 construct: BD1: amino acids K57-E168; made in house
In words: TR-FRET bromodomain binding assay, first bromodomain of BRD4. The conditions noted are these: 100 nM probe. The procedure:
(§1) Bromodomain Domain Binding Assay
(§2) A time-resolved fluorescence resonance energy transfer (TR-FRET) assay was used to determine the affinities of compounds of the Examples listed in Table 1 for each bromodomain of BRD4. His-tagged first (BD1: amino acids K57-E168) and second (BD2: amino acids […]) bromodomains of BRD4 were expressed and purified. An Alexa647-labeled BET-inhibitor was used as the fluorescent probe in the assay.
(§3) Compound dilution series were prepared in DMSO via an approximately 3-fold serial dilution from one of the following: […]
(§4) Assay method E: 0.47 mM to 7.8 nM […]
(§5) Assay method G: 0.047 mM to 0.78 nM
(§6) or 5-fold serial dilution from one of the following: […]
(§7) Assay method B: 2.5 mM-797 nM […]
(§8) For Assay methods B, E, and G: Compound dilutions were added directly into white, low-volume assay plates (Perkin Elmer Proxiplate 384 Plus#6008280) using a Labcyte Echo in conjunction with Labcyte Access and Thermo Multidrop CombinL robotics. Compounds were then suspended in eight microliters (μL) of assay buffer (20 mM Sodium Phosphate, pH 6.0, 50 mM NaCl, 1 mM Ethylenediaminetetraacetic acid disodium salt dihydrate, 0.01% Triton X-100, 1 mM DL-Dithiothreitol) containing His-tagged bromodomain, Europium-conjugated anti-His antibody (Invitrogen PV5596) and Alexa-647-conjugated probe.
(§9) The final concentration of 1× assay mixture for assay methods A, B, C, D, E, F, and G contains 2% DMSO, 8 nM His-tagged bromodomain, 1 nM Europium-conjugated anti-His-tag antibody and 100 nM or 30 nM probe (for BDI or BDII, respectively) and compound concentration in the range of: 50 μM-16 nM for method A, 49.02 μM-15.63 nM for method B, 25 μM-423 pM for method C, 10 μM-169 pM for method D, 9.19 μM-150 pM for method E, 5 μM-85 pM for method F, and 0.92 μM-15 pM for method G.
(§10) After a one-hour equilibration at room temperature, TR-FRET ratios were determined using an Envision multilabel plate reader (Ex 340, Em 495/520).
(§11) TR-FRET data were normalized to the means of 24 no-compound controls (“high”) and 8 controls containing 1 μM un-labeled probe (“low”). Percent inhibition was plotted as a function of compound concentration and the data were fit with the 4 parameter logistic equation to obtain IC50s. Inhibition constants (Ki) were calculated from the IC50s, probe Kd and probe concentration. Typical Z′ values were between 0.65 and 0.75. The minimum significant ratio was determined to evaluate assay reproducibility (Eastwood et al., (2006) J Biomol Screen, 11: 253-261). The MSR was determined to be 2.03 for BDI and 1.93 for BDII, and a moving MSR (last six run MSR overtime) for both BDI and BDII was typically <3.
(In general: TR-FRET usually uses a lanthanide donor and a delayed reading to cut background.)

Test [2] concerns the target T2, BRD4 (BDII_E352-M457) (Homo sapiens, UniProt O60885).
T2 construct: protocol; made in house
In words: TR-FRET bromodomain binding assay, second bromodomain of BRD4. The conditions noted are these: 30 nM probe. The method, then:
as §1, §2, §3, §4, §5, §6, §7, §8, §9, §10, §11

Setting [3] is: TR-FRET assay protocol G (compound 0.92 μM-15 pM).
Setting [4] is: TR-FRET assay protocol E (compound 9.19 μM-150 pM).

Turning to “2-(3-(10-methyl-7-((methylsulfonyl)methyl)-11-oxo-10,11-dihydro-1H-1,4,10-triazadibenzo[cd,f]azulen-4(3H)-yl)pyrrolidin-1-yl)acetic acid [Example 179]”, the Ki (in general, a measure of affinity in units of concentration, obtained from inhibition or displacement) is 0.0201 µM in test [1] (setting [3]) and 0.0807 µM in test [2] (setting [3]).

For “4-(1-ethylpiperidin-3-yl)-10-methyl-7-((methylsulfonyl)methyl)-3,4-dihydro-1H-1,4,10-triazadibenzo[cd,f]azulen-11(10H)-one [Example 190]”, the inhibition constant Ki was 0.0267 µM in test [1] (setting [3]) and 0.0309 µM in test [2] (setting [3]).

On to “4-((1-isopropylpiperidin-4-yl)methyl)-10-methyl-7-((methylsulfonyl)methyl)-3,4-dihydro-1H-1,4,10-triazadibenzo[cd,f]azulen-11(10H)-one [Example 183]”, for which the Ki turned out to be 0.00384 µM in test [1] (setting [3]) and 0.0155 µM in test [2] (setting [3]).

As to “4-([1,1′-biphenyl]−4-ylsulfonyl)-10-methyl-7-((methylsulfonyl)methyl)-3,4-dihydro-1H-1,4,10-triazadibenzo[cd,f]azulen-11(10H)-one [Example 75]”, the figures for the Ki in test [1] (setting [3]) and in test [2] (setting [3]) were greater than 0.238 µM and greater than 0.408 µM, respectively.

Regarding “7-fluoro-10-methyl-3,4-dihydro-1H-1,4,5,10-tetraazadibenzo[cd,f]azulen-11(10H)-one [Example 38]”, the values for the Ki in test [1] (setting [3]) and in test [2] (setting [3]) were greater than 0.238 µM and greater than 0.408 µM, respectively.

As for “10-methyl-7-((methylsulfonyl)methyl)-4-(1-((2-(trimethylsilyl)ethoxy)methyl)-1H-indazol-5-yl)-3,4-dihydro-1H-1,4,10-triazadibenzo[cd,f]azulen-11(10H)-one [Example 233]”, the Ki in test [1] (setting [3]) came out at 0.00615 µM; in test [2] (setting [3]) it was 0.00377 µM.

With `COC(=O)CCC1Nc2ccc(CS(C)(=O)=O)cc2-c2cn(C)c(=O)c3[nH]cc1c23` (racemic) [Example 17, methyl 3-(10-methyl-7-((methylsulfonyl)methyl)-11-oxo-3,4,10,11-tetrahydro-1H-1,4,10-triazadibenzo[cd,f]azulen-3-yl)propanoate], the Ki in test [1] (setting [4]) was found to be 0.165 µM; in test [2] (setting [4]), 0.0539 µM.

Consider `Cn1cc2c3c(c[nH]c3c1=O)CN(CC1CCOC(C)(C)C1)c1ccc(CS(C)(=O)=O)cc1-2` (racemic) [Example 152, 4-((2,2-dimethyltetrahydro-2H-pyran-4-yl)methyl)-10-methyl-7-((methylsulfonyl)methyl)-3,4-dihydro-1H-1,4,10-triazadibenzo[cd,f]azulen-11(10H)-one], for which the Ki in test [1] (setting [3]) is 0.00718 µM; in test [2] (setting [3]), 0.011 µM.

On to `CCOCCC(C)N1Cc2c[nH]c3c(=O)n(C)cc(c23)-c2cc(CS(C)(=O)=O)ccc21` (racemic) [Example 153, 4-(4-ethoxybutan-2-yl)-10-methyl-7-((methylsulfonyl)methyl)-3,4-dihydro-1H-1,4,10-triazadibenzo[cd,f]azulen-11(10H)-one], for which the Ki in test [1] (setting [3]) was 0.00372 µM; in test [2] (setting [3]) it was 0.00918 µM.

As to `Cn1cc2c3c(c[nH]c3c1=O)C(C(=O)NCCC#N)N(c1ccc(F)cc1F)c1ccc(CS(C)(=O)=O)cc1-2` (racemic) [Example 154, N-(2-cyanoethyl)-4-(2,4-difluorophenyl)-10-methyl-7-((methylsulfonyl)methyl)-11-oxo-3,4,10,11-tetrahydro-1H-1,4,10-triazadibenzo[cd,f]azulene-3-carboxamide], the figures for the Ki in test [1] (setting [3]) and in test [2] (setting [3]) were 0.0507 µM and 0.0531 µM, respectively.

On to `Cn1cc2c3c(c[nH]c3c1=O)C(C(=O)NCCCc1ccccc1)N(c1ccc(F)cc1F)c1ccc(CS(C)(=O)=O)cc1-2` (racemic) [Example 160, 4-(2,4-difluorophenyl)-10-methyl-7-((methylsulfonyl)methyl)-11-oxo-N-(3-phenylpropyl)-3,4,10,11-tetrahydro-1H-1,4,10-triazadibenzo[cd,f]azulene-3-carboxamide], for which the Ki in test [1] (setting [3]) was 0.125 µM; in test [2] (setting [3]) it was 0.118 µM.

For `Cn1cc2c3c(c[nH]c3c1=O)C(C(=O)NC1(CO)CC1)N(c1ccc(F)cc1F)c1ccc(CS(C)(=O)=O)cc1-2` (racemic) [Example 166, 4-(2,4-difluorophenyl)-N-(1-(hydroxymethyl)cyclopropyl)-10-methyl-7-((methylsulfonyl)methyl)-11-oxo-3,4,10,11-tetrahydro-1H-1,4,10-triazadibenzo[cd,f]azulene-3-carboxamide], the Ki in test [1] (setting [3]) is 0.06 µM; in test [2] (setting [3]) it was 0.0733 µM.

Consider `Cn1cc2c3c(c[nH]c3c1=O)C(C(=O)NC1(C)CC1)N(c1ccc(F)cc1F)c1ccc(CS(C)(=O)=O)cc1-2` (racemic) [Example 167, 4-(2,4-difluorophenyl)-10-methyl-N-(1-methylcyclopropyl)-7-((methylsulfonyl)methyl)-11-oxo-3,4,10,11-tetrahydro-1H-1,4,10-triazadibenzo[cd,f]azulene-3-carboxamide], for which the Ki in test [1] (setting [3]) is 0.0692 µM; in test [2] (setting [3]), 0.0763 µM.

For the compound `COCCC(C)N1Cc2c[nH]c3c(=O)n(C)cc(c23)-c2cc(CS(C)(=O)=O)ccc21` (racemic) [Example 186, 4-(4-methoxybutan-2-yl)-10-methyl-7-((methylsulfonyl)methyl)-3,4-dihydro-1H-1,4,10-triazadibenzo[cd,f]azulen-11(10H)-one], the Ki in test [1] (setting [3]) was found to be 0.00421 µM; in test [2] (setting [3]) it was 0.0092 µM.

For the compound `CC(C1CCOCC1)N1Cc2c[nH]c3c(=O)n(C)cc(c23)-c2cc(CS(C)(=O)=O)ccc21` (racemic) [Example 188, 10-methyl-7-((methylsulfonyl)methyl)-4-(1-(tetrahydro-2H-pyran-4-yl)ethyl)-3,4-dihydro-1H-1,4,10-triazadibenzo[cd,f]azulen-11(10H)-one], the Ki turned out to be 0.00364 µM in test [1] (setting [3]) and 0.00462 µM in test [2] (setting [3]).

`Cn1cc2c3c(c[nH]c3c1=O)C(Cn1ccccc1=O)N(c1ccc(F)cc1F)c1ccc(CS(C)(=O)=O)cc1-2` (single isomer, unassigned) [Example 251]: the results for the Ki in test [1] (setting [3]) and in test [2] (setting [3]) were greater than 0.238 µM and 0.142 µM, respectively.

With `COC(=O)CC[C@H]1c2c[nH]c3c(=O)n(C)cc(c23)-c2cc(CS(C)(=O)=O)ccc2N1c1ccc(F)cc1F` (single isomer, unassigned) [Example 269], the values for the Ki in test [1] (setting [3]) and in test [2] (setting [3]) were 0.00569 µM and 0.00092 µM, respectively.

Consider `Cn1cc2c3c(c[nH]c3c1=O)CNc1ccc(S(C)(=O)=O)cc1-2` [Example 4, 10-methyl-7-(methylsulfonyl)-3,4-dihydro-1H-1,4,10-triazadibenzo[cd,f]azulen-11(10H)-one], for which the Ki in test [1] (setting [4]) was determined as 2 µM; in test [2] (setting [4]) it was 3.09 µM.

On to `Cn1cc2c3c(c[nH]c3c1=O)CNc1ccc(CS(C)(=O)=O)cc1-2` [Example 5, 10-methyl-7-((methylsulfonyl)methyl)-3,4-dihydro-1H-1,4,10-triazadibenzo[cd,f]azulen-11(10H)-one], for which the Ki came to 0.765 µM in test [1] (setting [4]) and 0.758 µM in test [2] (setting [4]).

Take `CCOC(=O)C1Nc2ncc(F)cc2-c2cn(C)c(=O)c3[nH]cc1c23` (centres unmarked) [Example 39, ethyl 7-fluoro-10-methyl-11-oxo-3,4,10,11-tetrahydro-1H-1,4,5,10-tetraazadibenzo[cd,f]azulene-3-carboxylate]: the Ki in test [1] (setting [3]) is greater than 0.238 µM; in test [2] (setting [3]) it was greater than 0.408 µM.

For `CCOC(=O)C1c2c[nH]c3c(=O)n(C)cc(c23)-c2cc(C)cnc2N1c1ccc(F)cc1` (centres unmarked) [Example 43, ethyl 4-(4-fluorophenyl)-7,10-dimethyl-11-oxo-3,4,10,11-tetrahydro-1H-1,4,5,10-tetraazadibenzo[cd,f]azulene-3-carboxylate], the Ki was 0.00729 µM in test [1] (setting [3]) and 0.0247 µM in test [2] (setting [3]).

Take `CCCCC(CC)COC(=O)N1Cc2c[nH]c3c(=O)n(C)cc(c23)-c2cc(CS(C)(=O)=O)ccc21` (centres unmarked) [Example 53, 2-ethylhexyl 10-methyl-7-((methylsulfonyl)methyl)-11-oxo-10,11-dihydro-1H-1,4,10-triazadibenzo[cd,f]azulene-4(3H)-carboxylate]: the inhibition constant (Ki) in test [1] (setting [3]) worked out at 0.00478 µM; in test [2] (setting [3]), 0.0219 µM.
